Results published in patent US20220204439A1, “LIPIDS AND LIPID NANOPARTICLE FORMULATIONS FOR DELIVERY OF NUCLEIC ACIDS” (Acuitas Therapeutics, Inc., priority 2015, published 2022).

system: luciferase expression in the liver; assay: In vivo luciferase mRNA expression in mouse liver with lipid nanoparticle formulations; design: species or system C57BL/6 mice; conditions: 0.3 mg mRNA/kg, tail vein injection, liver 4 hours after administration; LNP 50% cationic lipid/10% DSPC/38.5% cholesterol/1.5% PEG-DMA; FLuc mRNA
Experimental: (§1) Cationic lipid (MC3), DSPC, cholesterol and PEG-lipid were solubilized in ethanol at a molar ratio of 50:10:38.5:1.5. Lipid nanoparticles (LNP) were prepared at a total lipid to mRNA weight ratio of approximately 10:1 to 30:1. Briefly, the mRNA was diluted to 0.2 mg/mL in 10 to 50 mM citrate buffer, pH 4. Syringe pumps were used to mix the ethanolic lipid solution with the mRNA aqueous solution at a ratio of about 1:5 to 1:3 (vol/vol) with total flow rates above 15 ml/min. The ethanol was then removed and the external buffer replaced with PBS by dialysis. Finally, the lipid nanoparticles were filtered through a 0.2 μm pore sterile filter. Lipid nanoparticle particle size was 70-90 nm diameter as determined by quasi-elastic light scattering using a Nicomp 370 submicron particle sizer (Santa Barbara, Calif.).
Studies were performed in 6-8 week old female C57BL/6 mice (Charles River) according to guidelines established by an institutional animal care committee (ACC) and the Canadian Council on Animal Care (CCAC). Varying doses of mRNA-lipid nanoparticle were systemically administered by tail vein injection and animals euthanized at specific time points (1, 2, 4, 8 and 24 hrs) post-administration. Liver and spleen were collected in pre-weighted tubes, weights determined, immediately snap frozen in liquid nitrogen and stored at −80° C. until processing for analysis.
For liver, approximately 50 mg was dissected for analyses in a 2 mL FastPrep tubes (MP Biomedicals, Solon Ohio). ¼″ ceramic sphere (MP Biomedicals) was added to each tube and 500 μL of Glo Lysis Buffer—GLB (Promega, Madison Wis.) equilibrated to room temperature was added to liver tissue. Liver tissues were homogenized with the FastPrep24 instrument (MP Biomedicals) at 2×6.0 m/s for 15 seconds. Homogenate was incubated at room temperature for 5 minutes prior to a 1:4 dilution in GLB and assessed using SteadyGlo Luciferase assay system (Promega). Specifically, 50 μL of diluted tissue homogenate was reacted with 50 μL of SteadyGlo substrate, shaken for 10 seconds followed by 5 minute incubation and then quantitated using a CentroXS^3 LB 960 luminometer (Berthold Technologies, Germany). The amount of protein assayed was determined by using the BCA protein assay kit (Pierce, Rockford Ill.). Relative luminescence units (RLU) were then normalized to total ug protein assayed. To convert RLU to ng luciferase a standard curve was generated with QuantiLum Recombinant Luciferase (Promega). Based in the data provided in FIG. 1, the four-hour time point was chosen for efficacy evaluation of the lipid formulations (see Example 29).
The FLuc mRNA (L-6107) from Trilink Biotechnologies will express a luciferase protein, originally isolated from the firefly, Photinus pyralis. FLuc is commonly used in mammalian cell culture to measure both gene expression and cell viability. It emits bioluminescence in the presence of the substrate, luciferin. This capped and polyadenylated mRNA is fully substituted with 5-methylcytidine and pseudouridine.
The cationic lipids shown in Table 2 have previously been tested with nucleic acids. For comparative purposes, these lipids were also used to formulate lipid nanoparticles containing the FLuc mRNA (L-6107) using an in line mixing method, as described in example 28 and in PCT/US10/22614, which is hereby incorporated by reference in its entirety. […] Relative activity was determined by measuring luciferase expression in the liver 4 hours following administration via tail vein injection as described in example 28. The activity was compared at a dose of 0.3 and 1.0 mg mRNA/kg and expressed as ng luciferase/g liver measured 4 hours after administration, as described in Example 28. […]

Row | Compound | Liver Luc @ 0.3 mg/kg (ng luc/g liver)
1 | CCCCCCCCC(=O)N(CCCN(C)C)C(CCCCCCCCCOC(=O)C(CCCC)CCCCCC)CCCCCCCCCOC(=O)C(CCCC)CCCCCC (centres unmarked) [Compound 17] | 837 ± 260
2 | CCCCCC(CCCC)OC(=O)CCCCCCCC(=O)N(CCCN(C)C)C(CCCCCCCCC(=O)OC(CCCC)CCCC)CCCCCCCCC(=O)OC(CCCC)CCCC (centres unmarked) [Compound 24] | 1120 ± 376
3 | CCCCCCC(CCCC)COC(=O)CCCCCCCCC(CCCCCCCCC(=O)OCC(CCCC)CCCCCC)N(CCCN(C)C)C(=O)C(CC)CCCCC (centres unmarked) [Compound 35] | 1083 ± 350
4 | CCCCCCCCC(=O)N(CCCN(C)C)C(CCCCCCCCCOC(=O)C(CCCCCC)CCCCCCCC)CCCCCCCCCOC(=O)C(CCCCCC)CCCCCCCC (centres unmarked) [Compound 36] | 541 ± 91
5 | CCCCCCCCC(=O)N(CCCN(C)C)C(CCCCCC(=O)OCC(CCCCCC)CCCCCCCC)CCCCCC(=O)OCC(CCCCCC)CCCCCCCC (centres unmarked) [Compound 38] | 905 ± 443
6 | CCCCCCCCC(CCCCCC)COC(=O)CCCCCC(CCCCCC(=O)OCC(CCCCCC)CCCCCCCC)N(CCCN(C)C)C(=O)CCCCCCC (centres unmarked) [Compound 39] | 779 ± 82
7 | CCCCCCCCC(CCCCCC)COC(=O)CCCCCC(CCCCCC(=O)OCC(CCCCCC)CCCCCCCC)N(CCCN(C)C)C(=O)CCCCCCCC(=O)OCC (centres unmarked) [Compound 40] | 753 ± 156
8 | CCCCC/C=C\C/C=C\CCCCCCCCC(CCCCCCCC/C=C\C/C=C\CCCCC)OC(=O)CCCN(C)C [MC3, reference compound] | 603 ± 150

same assay, conditions: 0.3 mg mRNA/kg, tail vein injection, liver 4 hours after administration; LNP 50% cationic lipid/10% DSPC/38.5% cholesterol/1.5% PEG-DMG; FLuc mRNA

Row | Compound | Liver Luc @ 0.3 mg/kg dose [ng luciferase/g liver]
9 | CCCCC/C=C\C/C=C\CCCCCCCCC(CCCCCCCC/C=C\C/C=C\CCCCC)OC(=O)CCCN(C)C [MC3, reference compound] | 198 ± 126

same assay, conditions: 1.0 mg mRNA/kg, tail vein injection, liver 4 hours after administration; LNP 50% cationic lipid/10% DSPC/38.5% cholesterol/1.5% PEG-DMA; FLuc mRNA

Row | Compound | Liver Luc @ 1.0 mg/kg (ng luc/g liver)
10 | CCCCCCCCC(=O)N(CCCN(C)C)C(CCCCCCCCCOC(=O)C(CCCC)CCCCCC)CCCCCCCCCOC(=O)C(CCCC)CCCCCC (centres unmarked) [Compound 17] | 6703 ± 689
11 | CCCCCC(CCCC)OC(=O)CCCCCCCC(=O)N(CCCN(C)C)C(CCCCCCCCC(=O)OC(CCCC)CCCC)CCCCCCCCC(=O)OC(CCCC)CCCC (centres unmarked) [Compound 24] | 7425 ± 2810
12 | CCCCCCC(CCCC)COC(=O)CCCCCCCCC(CCCCCCCCC(=O)OCC(CCCC)CCCCCC)N(CCCN(C)C)C(=O)C(CC)CCCCC (centres unmarked) [Compound 35] | 8554 ± 4587
13 | CCCCCCCCC(=O)N(CCCN(C)C)C(CCCCCCCCCOC(=O)C(CCCCCC)CCCCCCCC)CCCCCCCCCOC(=O)C(CCCCCC)CCCCCCCC (centres unmarked) [Compound 36] | 4736 ± 980
14 | CCCCCCCCC(=O)N(CCCN(C)C)C(CCCCCC(=O)OCC(CCCCCC)CCCCCCCC)CCCCCC(=O)OCC(CCCCCC)CCCCCCCC (centres unmarked) [Compound 38] | 5353 ± 2082
15 | CCCCCCCCC(CCCCCC)COC(=O)CCCCCC(CCCCCC(=O)OCC(CCCCCC)CCCCCCCC)N(CCCN(C)C)C(=O)CCCCCCC (centres unmarked) [Compound 39] | 5180 ± 2116
16 | CCCCCCCCC(CCCCCC)COC(=O)CCCCCC(CCCCCC(=O)OCC(CCCCCC)CCCCCCCC)N(CCCN(C)C)C(=O)CCCCCCCC(=O)OCC (centres unmarked) [Compound 40] | 2203 ± 1555
17 | CCCCC/C=C\C/C=C\CCCCCCCCC(CCCCCCCC/C=C\C/C=C\CCCCC)OC(=O)CCCN(C)C [MC3, reference compound] | 2876 ± 622

same assay, conditions: 1.0 mg mRNA/kg, tail vein injection, liver 4 hours after administration; LNP 50% cationic lipid/10% DSPC/38.5% cholesterol/1.5% PEG-DMG; FLuc mRNA

Row | Compound | Liver Luc @ 1.0 mg/kg dose [ng luciferase/g liver]
18 | CCCCC/C=C\C/C=C\CCCCCCCCC(CCCCCCCC/C=C\C/C=C\CCCCC)OC(=O)CCCN(C)C [MC3, reference compound] | 757 ± 528

system: not listed separately; assay: pKa of formulated cationic lipids in lipid nanoparticles (TNS fluorescence assay); type: physicochemical; conditions: probe 2-(p-toluidino)-6-napthalene sulfonic acid (TNS), 1 µM final; formulated in LNP cationic lipid/DSPC/cholesterol/PEG-lipid 50/10/38.5/1.5 mol %; pH of half-maximal TNS fluorescence
Experimental: As described elsewhere, the pKa of formulated cationic lipids is correlated with the effectiveness of LNPs for delivery of nucleic acids (see Jayaraman et al, Angewandte Chemie, International Edition (2012), 51(34), 8529-8533; Semple et al, Nature Biotechnology 28, 172-176 (2010)). The preferred range of pKa is ˜5 to ˜7. […] Lipid nanoparticles comprising of cationic lipid/DSPC/cholesterol/PEG-lipid (50/10/38.5/1.5 mol %) in PBS at a concentration of 0.4 mM total lipid are prepared using the in-line process as described in Example 28. TNS was prepared as a 100 μM stock solution in distilled water. Vesicles were diluted to 24 μM lipid in 2 mL of buffered solutions containing, 10 mM HEPES, 10 mM MES, 10 mM ammonium acetate, 130 mM NaCl, where the pH ranged from 2.5 to 11. An aliquot of the TNS solution was added to give a final concentration of 1 μM and following vortex mixing fluorescence intensity was measured at room temperature in a SLM Aminco Series 2 Luminescence Spectrophotometer using excitation and emission wavelengths of 321 nm and 445 nm. A sigmoidal best fit analysis was applied to the fluorescence data and the pKa was measured as the pH giving rise to half-maximal fluorescence intensity (see FIG. 2).

Row | Compound | pKa
19 | CCCCCCCCC(=O)N(CCCN(C)C)C(CCCCCCCCCOC(=O)C(CCCC)CCCCCC)CCCCCCCCCOC(=O)C(CCCC)CCCCCC (centres unmarked) [Compound 17] | 6.29
20 | CCCCCC(CCCC)OC(=O)CCCCCCCC(=O)N(CCCN(C)C)C(CCCCCCCCC(=O)OC(CCCC)CCCC)CCCCCCCCC(=O)OC(CCCC)CCCC (centres unmarked) [Compound 24] | 6.14
21 | CCCCCCCCC(=O)N(CCCN(C)C)C(CCCCCCCCCOC(=O)C(CCCCCC)CCCCCCCC)CCCCCCCCCOC(=O)C(CCCCCC)CCCCCCCC (centres unmarked) [Compound 36] | 6.13

Further lines, results first:

Row | pKa | Compound
22 | 5.97 | CCCCCCC(CCCC)COC(=O)CCCCCCCCC(CCCCCCCCC(=O)OCC(CCCC)CCCCCC)N(CCCN(C)C)C(=O)C(CC)CCCCC (centres unmarked) [Compound 35]
23 | 6.45 | CCCCCCCCC(=O)N(CCCN(C)C)C(CCCCCC(=O)OCC(CCCCCC)CCCCCCCC)CCCCCC(=O)OCC(CCCCCC)CCCCCCCC (centres unmarked) [Compound 38]
24 | 6.45 | CCCCCCCCC(CCCCCC)COC(=O)CCCCCC(CCCCCC(=O)OCC(CCCCCC)CCCCCCCC)N(CCCN(C)C)C(=O)CCCCCCC (centres unmarked) [Compound 39]
25 | 6.57 | CCCCCCCCC(CCCCCC)COC(=O)CCCCCC(CCCCCC(=O)OCC(CCCCCC)CCCCCCCC)N(CCCN(C)C)C(=O)CCCCCCCC(=O)OCC (centres unmarked) [Compound 40]

system: not listed separately; assay: Lipid nanoparticle particle size by quasi-elastic light scattering; type: physicochemical; conditions: MC3/DSPC/cholesterol/PEG-lipid 50:10:38.5:1.5 LNP with mRNA, Nicomp 370
Experimental: as §1

Row | Lipid nanoparticle particle size (diameter) | Compound
26 | 70-90 nm | CCCCC/C=C\C/C=C\CCCCCCCCC(CCCCCCCC/C=C\C/C=C\CCCCC)OC(=O)CCCN(C)C [MC3, reference compound]
